Key:
Type in all cases: functional
Schistosoma japonicum [1] = assay: Antiparasitic activity against Schistosoma japonicum assessed as worm survival at 50 uM incubated for 16 hrs measured after 72 hrs
Schistosoma japonicum [2] = assay: Antiparasitic activity against Schistosoma japonicum assessed as worm survival at 50 uM incubated for 16 hrs measured after 48 hrs
Schistosoma japonicum [3] = assay: Antiparasitic activity against Schistosoma japonicum assessed as worm survival at 50 uM incubated for 16 hrs measured after 24 hrs
Schistosoma japonicum [4] = assay: Antiparasitic activity against Schistosoma japonicum adult worm infected in ICR mouse assessed as worm reduction at 200 mg/kg, po administered for 3 days measured after 21 days; set-up: scale not given: the % may be the effect or the level left

SMILES	survival at 50 µM (Schistosoma japonicum [1]) [%]	survival at 50 µM (Schistosoma japonicum [2]) [%]	survival at 50 µM (Schistosoma japonicum [3]) [%]	Activity (Schistosoma japonicum [4]) [%]
O=C(O)C1Nc2ccccc2S(=O)(=O)n2cccc21 (configuration not stated)	100	100	100	–
CCOC(=O)C1Nc2ccccc2Sn2c(Br)ccc21 (configuration not stated)	66.7	100	100	12
CCOC(=O)C1Nc2ccccc2Sn2c(Cl)ccc21 (configuration not stated)	33.3	83.3	100	51.5
CCOC(=O)C1Nc2ccccc2[S+]([O-])n2cccc21 (configuration not stated)	100	100	100	–
CCOC(=O)C1Nc2ccccc2Nn2cccc21 (configuration not stated)	100	100	100	–
CCOC(=O)C1Nc2ccccc2N(C)n2cccc21 (configuration not stated)	83.3	100	100	34.8
CC1=Nc2ccccc2N(C)n2cccc21	83.3	100	100	24.2
CN1c2ccccc2N=Cc2cccn21	83.3	100	100	6.1
CCOC(=O)C1Nc2ccccc2Cn2cccc21 (configuration not stated)	83.3	100	100	74.2
O=C1Nc2ccccc2Sn2cccc21	100	100	100	–
CCOC(=O)C1Nc2ccccc2Sn2cccc21 (configuration not stated)	16.7	66.7	100	4.5
CCOC(=O)C1Nc2ccccc2S(=O)(=O)n2cccc21 (configuration not stated)	100	100	100	–
O=C(C1CCCCC1)N1CC(=O)N2CCc3ccccc3C2C1 (configuration not stated) [PRAZIQUANTEL]	33.3	33.3	66.7	96.9

From ChEMBL document CHEMBL2396566, “Development of a novel class of pyrrolo-[1,2,5]benzothiadiazepine derivatives as potential anti-schistosomal agents” (2013)
